Test results published in patent US7842695B2, “Substituted pyrazole compounds” (Merck Patent GmbH, priority 2003, dated 2010).

Each compound was assayed against 5-HT2A receptors (UniProt P14842) (assay: in-vitro affinity to 5-HT2A receptors, [3H]ketanserine displacement (Example A1)).
Type: binding
Source text: The 5-HT2A receptors are exposed both to [^3H]ketanserine (a substance known for its affinity to the receptor) and also to the test compound. The decrease in the affinity of [^3H]ketanserine to the receptor is an indication of the affinity of the test substance to the 5-HT2A receptor.

Row | Structure (SMILES) | IC50 [nM]
1 | CC1CCCN1Cc1cnn(-c2ccc(-c3ccc4c(c3)OCCO4)cc2)c1-c1ccco1 (stereo not drawn) [Example 594, 1-[4-(2,3-Dihydrobenzo-1,4-dioxin-6-yl)phenyl]-5-furan-2-yl-4-(2-methylpyrrolidin-1-ylmethyl)-1H-pyrazole] | 21
2 | COc1ccc(-c2ccc(-n3ncc(CNCc4cc5ccccc5n4C)c3-c3ccco3)cc2)cc1 [Example 695, [5-Furan-2-yl-1-(4′-methoxybiphenyl-4-yl)-1H-pyrazol-4-ylmethyl]-(1-methyl-1H-indol-2-ylmethyl)amine] | 300
3 | CC(C)(C)OC(=O)N1CCN(Cc2cnn(-c3ccc(-c4cccc(F)c4)cc3)c2-c2ccco2)CC1 [Example 638, tert-Butyl 4-[1-(3′-Fluorobiphenyl-4-yl)-5-furan-2-yl-1H-pyrazol-4-ylmethyl]piperazine-1-carboxylate] | 42
4 | CCN1CCN(Cc2cnn(-c3ccc(-c4ccc(F)cc4)cc3)c2-c2cccc(Cl)c2)CC1 [Example 650, 1-[5-(3-Chlorophenyl)-1-(4′-fluorobiphenyl-4-yl)-1H-pyrazol-4-ylmethyl]-4-ethylpiperazine] | 54
5 | CN1CCN(Cc2cnn(-c3ccc(-c4ccc[nH]4)cc3)c2-c2ccccc2F)CC1 [Example 653, 1-{5-(2-Fluorophenyl)-1-[4-(1H-pyrrol-2-yl)phenyl]-1H-pyrazol-4-ylmethyl}-4-methylpiperazine] | 58
6 | Cc1nn(-c2ccccc2)c(C)c1CN1CCN(C(=O)[C@]2(C)CC[C@@H](C(=O)O)C2(C)C)CC1 [Example 687] | 210
7 | Cc1noc(C)c1-c1c(CN2CCNCC2)cnn1-c1ccc(-c2ccc(F)cc2)cc1 [Example 691, 1-[5-(3,5-Dimethylisoxazol-4-yl)-1-(4′-fluorobiphenyl-4-yl)-1H-pyrazol-4-ylmethyl]piperazine] | 250
8 | CN1CCN(c2cnn(-c3ccc(-c4ccc5c(c4)OCO5)cc3)c2-c2ccccc2)CC1 [Example 565, 1-[1-(4-Benzo-1,3-dioxol-5-ylphenyl)-5-phenyl-1H-pyrazol-4-yl]-4-methylpiperazine] | 10
9 | Fc1ccc(-c2ccc(-n3ncc(CNC4CN5CCC4CC5)c3-c3ccco3)cc2)cc1 (stereo not drawn) [Example 621] | 34
10 | Fc1ccc(CCN2CCC(NCc3cnn(-c4ccc(-c5ccc(F)cc5)cc4)c3-c3ccco3)C2)cc1 (stereo not drawn) [Example 581, [1-(4′-Fluorobiphenyl-4-yl)-5-furan-2-yl-1H-pyrazol-4-ylmethyl]-{1-[2-(4-fluorophenyl)ethyl]pyrrolidin-3-yl}amine] | 17
11 | Fc1ccc(-c2ccc(-n3ncc(CN4CCC(N5CCCC5)CC4)c3-c3ccoc3)cc2)cc1 [Example 692, 1-[1-(4′-Fluorobiphenyl-4-yl)-5-furan-3-yl-1H-pyrazol-4-ylmethyl]-4-pyrrolidin-1-ylpiperidine] | 260
12 | COc1cccc(-c2c(CN3CCN(C)CC3)cnn2-c2ccc(-c3ccc(F)cc3)cc2)c1 [Example 627, 1-[1-(4′-Fluorobiphenyl-4-yl)-5-(3-methoxyphenyl)-1H-pyrazol-4-ylmethyl]-4-methylpiperazine] | 36
13 | O=C1CN(Cc2cnn(-c3ccc(-c4ccc5c(c4)OCO5)cc3)c2-c2ccco2)CCN1 [Example 693, 4-[1-(4-Benzo-1,3-dioxol-5-ylphenyl)-5-furan-2-yl-1H-pyrazol-4-ylmethyl]piperazin-2-one] | 280
14 | OCCCNCc1cnn(-c2ccc(-c3ccc(F)cc3)cc2)c1-c1ccco1 [Example 668, 3-{[1-(4′-Fluorobiphenyl-4-yl)-5-furan-2-yl-1H-pyrazol-4-ylmethyl]amino}propan-1-ol] | 94
15 | O=C1CN(Cc2cnn(-c3ccc(-c4cccc(F)c4)cc3)c2-c2ccco2)CCN1 [Example 645, 4-[1-(3′-Fluorobiphenyl-4-yl)-5-furan-2-yl-1H-pyrazol-4-ylmethyl]piperazin-2-one] | 49
16 | COc1ccc(-c2ccc(-n3ncc(CN)c3-c3ccco3)cc2)cc1 [Example 584, C-[5-Furan-2-yl-1-(4′-methoxybiphenyl-4-yl)-1H-pyrazol-4-yl]methylamine] | 18
17 | CN(CCC#N)Cc1cnn(-c2ccc(-c3ccc(F)cc3)cc2)c1-c1ccco1 [Example 669, 3-{[1-(4′-Fluorobiphenyl-4-yl)-5-furan-2-yl-1H-pyrazol-4-ylmethyl]methylamino}propionitrile] | 95
18 | NC1CCN(Cc2cnn(-c3ccc(-c4ccc5c(c4)OCCO5)cc3)c2-c2ccco2)CC1 [Example 652, 1-{1-[4-(2,3-Dihydrobenzo-1,4-dioxin-6-yl)phenyl]-5-furan-2-yl-1H-pyrazol-4-ylmethyl}piperidin-4-ylamine] | 55
19 | CCN(CC)Cc1cnn(-c2ccc(-c3ccc(F)cc3)cn2)c1-c1ccco1 [Example 675, Diethyl-{1-[5-(4-fluorophenyl)pyridin-2-yl]-5-furan-2-yl-1H-pyrazol-4-ylmethyl}amine] | 130
20 | CCCN1CCN(Cc2cnn(-c3ccc(-c4ccc(F)cc4)cc3)c2-c2ccoc2)CC1 [Example 657, 1-[1-(4′-Fluorobiphenyl-4-yl)-5-furan-3-yl-1H-pyrazol-4-ylmethyl]-4-propylpiperazine] | 73

Row | Structure (SMILES) | IC50 [nM]
21 | CN1CCC(N(C)Cc2cnn(-c3ccc(-c4ccc(F)cc4)cc3)c2-c2ccco2)C1 (stereo not drawn) [Example 575, [1-(4′-Fluorobiphenyl-4-yl)-5-furan-2-yl-1H-pyrazol-4-ylmethyl]methyl-(1-methyl-3-pyrrolidinyl)amine] | 14.7
22 | CCN(CC)Cc1cnn(-c2ccc(-c3ccc(F)cc3)cc2)c1-c1cccc(Cl)c1 [Example 682, [5-(3-Chlorophenyl)-1-(4′-fluorobiphenyl-4-yl)-1H-pyrazol-4-ylmethyl]diethylamine] | 190
23 | CN1CCN(c2cnn(-c3ccc(-c4cccc(F)c4)cc3)c2-c2ccccc2)CC1 [Example 578, 1-[1-(3′-Fluorobiphenyl-4-yl)-5-phenyl-1H-pyrazol-4-yl]-4-methylpiperazine] | 16
24 | COc1ccc(-c2ccc(-n3ncc(CNCc4cc[nH]n4)c3-c3ccco3)cc2)cc1 [Example 656, [5-Furan-2-yl-1-(4′-methoxybiphenyl-4-yl)-1H-pyrazol-4-ylmethyl]-(1H-pyrazol-3-ylmethyl)amine] | 71
25 | OC1CCN(Cc2cnn(-c3ccc(-c4ccc(F)cc4)cc3)c2-c2ccoc2)C1 (stereo not drawn) [Example 670, 1-[1-(4′-Fluorobiphenyl-4-yl)-5-furan-3-yl-1H-pyrazol-4-ylmethyl]pyrrolidin-3-ol] | 96
26 | Cc1ccoc1-c1c(CN2CCN(C(=O)OC(C)(C)C)CC2)cnn1-c1ccc(-c2ccc(F)cc2)cc1 [Example 689, tert-Butyl 4-[1-(4′-fluorobiphenyl-4-yl)-5-(3-methyl-2-furanyl)-1H-pyrazol-4-ylmethyl]piperazine-1-carboxylate] | 220
27 | O=C(c1ccccc1)C1CCCN(Cc2cnn(-c3ccc(-c4ccc(F)cc4)cc3)c2-c2ccco2)C1 (stereo not drawn) [Example 593, 1-{1-[1-(4′-Fluorobiphenyl-4-yl)-5-furan-2-yl-1H-pyrazol-4-ylmethyl]piperidin-3-yl}-1-phenylmethanone] | 20
28 | CC(C)(C)OC(=O)N1CCN(Cc2cnn(-c3ccc(-c4ccc5c(c4)OCCO5)cc3)c2-c2ccco2)CC1 [Example 572, tert-Butyl 4-{1-[4-(2,3-dihydrobenzo-1,4-dioxin-6-yl)phenyl]-5-furan-2-yl-1H-pyrazol-4-ylmethyl}piperazine-1-carboxylate] | 12
29 | CC(C)CNCc1cnn(-c2ccc(-c3ccc(F)cc3)cc2)c1-c1ccco1 [Example 654, [1-(4′-Fluorobiphenyl-4-yl)-5-furan-2-yl-1H-pyrazol-4-ylmethyl]isobutylamine] | 61
30 | COc1cccc(-c2c(CN3CCC(O)C3)cnn2-c2ccc(-c3ccc(F)cc3)cc2)c1 (stereo not drawn) [Example 598, 1-[1-(4′-Fluorobiphenyl-4-yl)-5-(3-methoxyphenyl)-1H-pyrazol-4-ylmethyl]pyrrolidin-3-ol] | 24
31 | COc1ccc(-c2ccc(-n3ncc(CNCc4ccccn4)c3-c3ccco3)cc2)cc1 [Example 641, [5-Furan-2-yl-1-(4′-methoxybiphenyl-4-yl)-1H-pyrazol-4-ylmethyl]pyridin-2-ylmethylamine] | 46
32 | CCN(CC)CCCNCc1cnn(-c2ccc(-c3ccc(F)cc3)cc2)c1-c1ccco1 [Example 609, N,N-Diethyl-N′-[1-(4′-fluorobiphenyl-4-yl)-5-furan-2-yl-1H-pyrazol-4-ylmethyl]propane-1,3-diamine] | 29
33 | OCC1CCN(Cc2cnn(-c3ccc(-c4ccc(F)cc4)cc3)c2-c2ccco2)C1 (stereo not drawn) [Example 567, {1-[1-(4′-Fluorobiphenyl-4-yl)-5-furan-2-yl-1H-pyrazol-4-ylmethyl]pyrrolidin-3-yl}methanol] | 11
34 | CN1CCN(Cc2cnn(-c3ccc(-c4ccccc4F)cc3)c2-c2ccco2)CC1 [Example 599, 1-[1-(2′-Fluorobiphenyl-4-yl)-5-furan-2-yl-1H-pyrazol-4-ylmethyl]-4-methylpiperazine] | 25
35 | COc1cccc(-c2c(CN3CCC(O)C3)cnn2-c2ccc(-c3ccc(F)cc3)cc2)c1 (stereo not drawn) [Example 665, 1-[1-(4′-Fluorobiphenyl-4-yl)-5-(3-methoxyphenyl)-1H-pyrazol-4-ylmethyl]pyrrolidin-3-ol] | 91
36 | O=C1NCCCCC1NCc1cnn(-c2ccc(-c3ccc(F)cc3)cc2)c1-c1ccco1 (stereo not drawn) [Example 694, 3-{[1-(4′-Fluorobiphenyl-4-yl)-5-furan-2-yl-1H-pyrazol-4-ylmethyl]amino}azepan-2-one] | 290
37 | Cc1noc(C)c1-c1c(CN2CCC(O)C2)cnn1-c1ccc(-c2ccc(F)cc2)cc1 (stereo not drawn) [Example 690, 1-[5-(3,5-Dimethylisoxazol-4-yl)-1-(4′-fluorobiphenyl-4-yl)-1H-pyrazol-4-ylmethyl]pyrrolidin-3-ol] | 240
38 | CCC(CC)CNCc1cnn(-c2ccc(-c3ccc(OC)cc3)cc2)c1-c1ccco1 [Example 637] | 42
39 | Fc1ccc(-c2ccc(-n3ncc(CNCCc4ccccn4)c3-c3ccco3)cc2)cc1 [Example 604, [1-(4′-Fluorobiphenyl-4-yl)-5-furan-2-yl-1H-pyrazol-4-ylmethyl]-(2-pyridin-2-ylethyl)amine] | 26
